Here are results for one molecule from paper PMC12848038, “O-GlcNAc and phosphorylation modifications on HtL1/FBA10 regulate wheat vernalization for flowering” (Nature Communications, 2025).

The assay concerns the target T1, HtL1/FBA10 (HtL1-GST) (Triticum aestivum, UniProt A0A1D5VE13).
T1 construct: gene LOC123071650; class I aldolase, homotetramer only predicted (SWISS-MODEL); cytosolic
T1 sequence (A0A1D5VE13 1-358): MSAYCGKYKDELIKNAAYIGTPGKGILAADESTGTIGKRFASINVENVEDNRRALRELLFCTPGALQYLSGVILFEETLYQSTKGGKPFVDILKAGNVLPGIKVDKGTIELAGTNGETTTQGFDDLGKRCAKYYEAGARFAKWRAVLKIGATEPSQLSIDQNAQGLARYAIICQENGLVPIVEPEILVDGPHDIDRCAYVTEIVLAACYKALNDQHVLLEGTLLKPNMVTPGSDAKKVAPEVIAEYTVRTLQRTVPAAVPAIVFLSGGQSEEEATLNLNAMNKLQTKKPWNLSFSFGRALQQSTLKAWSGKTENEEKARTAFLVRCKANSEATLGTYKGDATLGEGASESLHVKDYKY
Kind of assay: fructose-1,6-bisphosphate aldolase activity assay kit, microplate reader; enzyme kinetic curve. The class given is biochemical. To be noted: GST fusion protein; no constant in text; kinetic curve only in figure.

For the molecule `O=P(O)(O)OC[C@H]1OC(O)(COP(=O)(O)O)[C@@H](O)[C@@H]1O` (stereo partly shown) [FBP, fructose 1,6-bisphosphate], the “fructose-1,6-bisphosphate aldolase activity assay kit, microplate reader; enzyme” value is “Enzyme kinetic curves and activity assays collectively demonstrated that HtL1 exhibits fructose-bisphosphate aldolase activity”.
